According to ChEMBL document CHEMBL4507260 (2021):

What was measured:
Conditions in all cases: Compound concentration 1000.0 nM
[1] = molecular target: ALK tyrosine kinase receptor (Homo sapiens) (UniProt Q9UM73)
[2] = molecular target: Tyrosine-protein kinase ABL1 (Homo sapiens) (UniProt P00519)
[3] = molecular target: Serine/threonine-protein kinase 17B (Homo sapiens) (UniProt O94768)
[4] = molecular target: Mast/stem cell growth factor receptor Kit (Homo sapiens) (UniProt P10721)
[5] = molecular target: Serine/threonine-protein kinase PAK 5 (Homo sapiens) (UniProt Q9P286)
[6] = molecular target: Casein kinase I isoform delta (Homo sapiens) (UniProt P48730)
[7] = molecular target: Ephrin type-B receptor 3 (Homo sapiens) (UniProt P54753)
[8] = molecular target: Bone morphogenetic protein receptor type-1A (Homo sapiens) (UniProt P36894)
[9] = molecular target: Serine/threonine-protein kinase PAK 4 (Homo sapiens) (UniProt O96013)
[10] = molecular target: Casein kinase I isoform gamma-2 (Homo sapiens) (UniProt P78368)
[11] = molecular target: Ephrin type-A receptor 7 (Homo sapiens) (UniProt Q15375)
Chain of Ephrin type-A receptor 7 (Homo sapiens) (Q15375 28-998 limits assumed): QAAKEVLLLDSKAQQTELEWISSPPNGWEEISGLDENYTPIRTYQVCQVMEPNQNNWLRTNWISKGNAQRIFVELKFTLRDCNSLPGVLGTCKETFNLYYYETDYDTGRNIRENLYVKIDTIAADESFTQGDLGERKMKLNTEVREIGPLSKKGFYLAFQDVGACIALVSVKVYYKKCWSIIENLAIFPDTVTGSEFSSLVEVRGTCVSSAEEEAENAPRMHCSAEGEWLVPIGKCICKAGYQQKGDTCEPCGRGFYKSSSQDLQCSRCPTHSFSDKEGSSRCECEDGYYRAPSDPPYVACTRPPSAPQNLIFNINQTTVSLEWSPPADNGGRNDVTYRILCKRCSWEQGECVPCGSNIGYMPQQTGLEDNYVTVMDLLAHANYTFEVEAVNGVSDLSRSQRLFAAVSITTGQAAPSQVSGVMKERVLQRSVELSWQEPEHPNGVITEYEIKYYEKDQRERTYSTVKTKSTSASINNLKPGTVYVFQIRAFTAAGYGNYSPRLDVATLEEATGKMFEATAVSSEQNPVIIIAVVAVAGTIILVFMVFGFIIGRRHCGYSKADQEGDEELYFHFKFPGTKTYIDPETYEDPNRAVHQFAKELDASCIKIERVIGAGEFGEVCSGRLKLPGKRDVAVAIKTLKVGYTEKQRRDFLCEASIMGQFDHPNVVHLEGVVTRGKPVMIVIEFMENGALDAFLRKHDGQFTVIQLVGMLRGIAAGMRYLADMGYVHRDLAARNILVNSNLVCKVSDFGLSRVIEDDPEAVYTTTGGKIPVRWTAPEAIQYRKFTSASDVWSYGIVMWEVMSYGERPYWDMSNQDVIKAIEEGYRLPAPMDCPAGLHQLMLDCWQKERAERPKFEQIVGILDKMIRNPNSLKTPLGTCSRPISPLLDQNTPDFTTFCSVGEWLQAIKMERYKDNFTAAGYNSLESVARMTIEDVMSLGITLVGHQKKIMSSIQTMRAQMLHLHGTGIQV

[12] = molecular target: Tyrosine-protein kinase Lyn (Homo sapiens) (UniProt P07948)
[13] = molecular target: Serine/threonine-protein kinase 25 (Homo sapiens) (UniProt O00506)
[14] = molecular target: Phosphorylase b kinase gamma catalytic chain, skeletal muscle/heart isoform (Homo sapiens) (UniProt Q16816)
[15] = molecular target: Macrophage colony-stimulating factor 1 receptor (Homo sapiens) (UniProt P07333)
[16] = molecular target: Platelet-derived growth factor receptor beta (Homo sapiens) (UniProt P09619)
[17] = molecular target: Serine/threonine-protein kinase OSR1 (Homo sapiens) (UniProt O95747)
[18] = molecular target: Ephrin type-A receptor 8 (Homo sapiens) (UniProt P29322)
[19] = molecular target: Serine/threonine-protein kinase DCLK3 (Homo sapiens) (UniProt Q9C098)
[20] = molecular target: Transient receptor potential cation channel subfamily M member 6 (Homo sapiens) (UniProt Q9BX84)
[21] = molecular target: Ephrin type-B receptor 4 (Homo sapiens) (UniProt P54760)
[22] = molecular target: Cyclin-dependent kinase 17 (Homo sapiens) (UniProt Q00537)
[23] = molecular target: Testis-specific serine/threonine-protein kinase 3 (Homo sapiens) (UniProt Q96PN8)
[24] = molecular target: Tyrosine-protein kinase Fyn (Homo sapiens) (UniProt P06241)
[25] = molecular target: 5'-AMP-activated protein kinase catalytic subunit alpha-2 (Homo sapiens) (UniProt P54646)
Chain of 5'-AMP-activated protein kinase catalytic subunit alpha-2 (Homo sapiens) (P54646 whole entry, looked up): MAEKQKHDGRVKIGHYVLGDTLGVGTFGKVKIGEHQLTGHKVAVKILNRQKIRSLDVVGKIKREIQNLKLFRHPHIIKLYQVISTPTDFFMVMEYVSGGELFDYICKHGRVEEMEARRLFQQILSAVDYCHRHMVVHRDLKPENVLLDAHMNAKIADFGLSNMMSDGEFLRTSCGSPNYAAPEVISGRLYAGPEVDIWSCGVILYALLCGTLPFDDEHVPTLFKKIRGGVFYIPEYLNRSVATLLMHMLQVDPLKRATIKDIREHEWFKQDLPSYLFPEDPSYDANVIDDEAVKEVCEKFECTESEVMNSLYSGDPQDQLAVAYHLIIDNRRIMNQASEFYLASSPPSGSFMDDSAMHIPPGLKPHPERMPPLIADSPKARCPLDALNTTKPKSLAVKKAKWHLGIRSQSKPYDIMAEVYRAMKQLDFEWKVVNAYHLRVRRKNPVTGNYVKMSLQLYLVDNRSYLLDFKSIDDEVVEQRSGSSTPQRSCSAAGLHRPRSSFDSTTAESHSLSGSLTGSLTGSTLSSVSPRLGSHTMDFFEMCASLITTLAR

[26] = molecular target: Ribosomal protein S6 kinase alpha-2 (Homo sapiens) (UniProt Q15349)
[27] = test system: Mast/stem cell growth factor receptor Kit (Homo sapiens), P10721 [V559D]
Chain of Mast/stem cell growth factor receptor Kit (Homo sapiens), P10721 [V559D] (P10721 whole entry V559D): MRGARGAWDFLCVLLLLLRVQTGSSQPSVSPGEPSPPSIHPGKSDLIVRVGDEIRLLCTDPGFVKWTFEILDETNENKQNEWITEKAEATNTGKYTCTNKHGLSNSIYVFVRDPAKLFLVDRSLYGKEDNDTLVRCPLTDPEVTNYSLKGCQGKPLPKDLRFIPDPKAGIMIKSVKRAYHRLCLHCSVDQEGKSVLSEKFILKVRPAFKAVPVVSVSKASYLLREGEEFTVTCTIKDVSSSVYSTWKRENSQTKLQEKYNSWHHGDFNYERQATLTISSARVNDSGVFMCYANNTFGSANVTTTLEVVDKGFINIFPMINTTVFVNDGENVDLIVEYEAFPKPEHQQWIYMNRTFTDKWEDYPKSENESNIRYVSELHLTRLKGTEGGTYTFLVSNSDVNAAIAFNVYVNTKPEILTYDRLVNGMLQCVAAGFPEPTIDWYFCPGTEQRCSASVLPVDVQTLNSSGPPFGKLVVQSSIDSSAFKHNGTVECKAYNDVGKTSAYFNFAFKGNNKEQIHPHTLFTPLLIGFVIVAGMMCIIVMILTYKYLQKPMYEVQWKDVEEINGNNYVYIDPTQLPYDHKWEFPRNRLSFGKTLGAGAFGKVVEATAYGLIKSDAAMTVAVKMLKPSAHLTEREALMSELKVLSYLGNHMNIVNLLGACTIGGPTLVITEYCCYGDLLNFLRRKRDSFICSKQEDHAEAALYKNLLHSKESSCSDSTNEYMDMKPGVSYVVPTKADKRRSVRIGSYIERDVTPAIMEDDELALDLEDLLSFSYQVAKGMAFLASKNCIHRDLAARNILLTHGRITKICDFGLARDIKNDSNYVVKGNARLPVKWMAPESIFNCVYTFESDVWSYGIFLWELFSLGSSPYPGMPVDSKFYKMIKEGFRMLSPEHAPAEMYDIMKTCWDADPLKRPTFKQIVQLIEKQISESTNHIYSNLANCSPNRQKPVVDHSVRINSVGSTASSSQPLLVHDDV

[28] = molecular target: Tyrosine-protein kinase Srms (Homo sapiens) (UniProt Q9H3Y6)
Chain of Tyrosine-protein kinase Srms (Homo sapiens) (Q9H3Y6 whole entry): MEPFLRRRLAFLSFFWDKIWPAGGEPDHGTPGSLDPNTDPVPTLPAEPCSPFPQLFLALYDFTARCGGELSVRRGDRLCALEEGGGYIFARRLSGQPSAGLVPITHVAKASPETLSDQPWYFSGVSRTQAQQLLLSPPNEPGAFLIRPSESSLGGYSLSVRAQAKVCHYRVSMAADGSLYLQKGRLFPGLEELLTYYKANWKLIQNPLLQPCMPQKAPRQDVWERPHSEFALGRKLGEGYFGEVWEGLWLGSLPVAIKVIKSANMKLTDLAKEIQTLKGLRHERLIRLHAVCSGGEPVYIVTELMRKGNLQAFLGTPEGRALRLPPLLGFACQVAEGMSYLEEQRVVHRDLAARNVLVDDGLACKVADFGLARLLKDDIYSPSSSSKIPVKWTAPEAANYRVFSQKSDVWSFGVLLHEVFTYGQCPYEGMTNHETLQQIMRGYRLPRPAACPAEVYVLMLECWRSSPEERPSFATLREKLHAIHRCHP

[29] = molecular target: Insulin-like growth factor 1 receptor (Homo sapiens) (UniProt P08069)
[30] = molecular target: Serine/threonine-protein kinase Nek10 (Homo sapiens) (UniProt Q6ZWH5)
[31] = molecular target: Mitogen-activated protein kinase 10 (Homo sapiens) (UniProt P53779)
Chain of Mitogen-activated protein kinase 10 (Homo sapiens) (P53779 whole entry): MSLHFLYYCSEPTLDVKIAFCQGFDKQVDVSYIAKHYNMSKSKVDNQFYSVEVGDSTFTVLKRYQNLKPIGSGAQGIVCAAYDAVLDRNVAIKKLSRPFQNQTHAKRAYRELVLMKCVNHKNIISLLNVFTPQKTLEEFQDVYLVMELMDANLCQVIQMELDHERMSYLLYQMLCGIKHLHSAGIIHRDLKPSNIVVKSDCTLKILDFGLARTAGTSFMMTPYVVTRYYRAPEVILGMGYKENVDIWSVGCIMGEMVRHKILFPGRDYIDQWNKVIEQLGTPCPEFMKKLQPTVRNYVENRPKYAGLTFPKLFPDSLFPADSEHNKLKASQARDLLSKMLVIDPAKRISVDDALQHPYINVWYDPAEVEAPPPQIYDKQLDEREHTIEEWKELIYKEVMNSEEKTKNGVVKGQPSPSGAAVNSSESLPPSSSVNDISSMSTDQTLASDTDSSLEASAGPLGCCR

[32] = molecular target: Wee1-like protein kinase (Homo sapiens) (UniProt P30291)
[33] = molecular target: Serine/threonine-protein kinase 36 (Homo sapiens) (UniProt Q9NRP7)
[34] = molecular target: Proto-oncogene tyrosine-protein kinase receptor Ret (Homo sapiens) (UniProt P07949)
[35] = test system: Receptor-type tyrosine-protein kinase FLT3 (Homo sapiens), P36888 [D835V]
[36] = molecular target: Atypical kinase COQ8B, mitochondrial (Homo sapiens) (UniProt Q96D53)
Chain of Atypical kinase COQ8B, mitochondrial (Homo sapiens) (Q96D53 whole entry): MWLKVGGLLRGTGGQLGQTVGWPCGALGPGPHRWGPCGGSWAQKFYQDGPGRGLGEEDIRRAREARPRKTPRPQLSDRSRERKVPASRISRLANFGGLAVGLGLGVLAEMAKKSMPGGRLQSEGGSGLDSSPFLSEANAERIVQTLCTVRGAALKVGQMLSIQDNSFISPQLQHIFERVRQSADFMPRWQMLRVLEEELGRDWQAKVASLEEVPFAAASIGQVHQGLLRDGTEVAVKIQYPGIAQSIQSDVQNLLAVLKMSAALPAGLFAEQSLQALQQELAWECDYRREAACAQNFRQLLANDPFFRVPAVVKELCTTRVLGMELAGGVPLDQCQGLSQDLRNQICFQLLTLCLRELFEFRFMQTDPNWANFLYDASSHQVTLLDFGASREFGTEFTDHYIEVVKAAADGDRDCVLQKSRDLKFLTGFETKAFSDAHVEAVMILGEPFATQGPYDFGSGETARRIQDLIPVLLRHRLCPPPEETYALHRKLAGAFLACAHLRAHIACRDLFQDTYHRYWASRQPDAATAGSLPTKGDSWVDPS

[37] = molecular target: Calcium-dependent protein kinase 1 (Plasmodium falciparum) (UniProt P62344)
[38] = molecular target: Cyclin-dependent kinase-like 2 (Homo sapiens) (UniProt Q92772)
[39] = molecular target: Cyclin-dependent kinase-like 3 (Homo sapiens) (UniProt Q8IVW4)
[40] = molecular target: Mitogen-activated protein kinase 9 (Homo sapiens) (UniProt P45984)
[41] = molecular target: Phosphatidylinositol 5-phosphate 4-kinase type-2 beta (Homo sapiens) (UniProt P78356)
[42] = molecular target: 3-phosphoinositide-dependent protein kinase 1 (Homo sapiens) (UniProt O15530)
Chain of 3-phosphoinositide-dependent protein kinase 1 (Homo sapiens) (O15530 whole entry, the tested form may be a part): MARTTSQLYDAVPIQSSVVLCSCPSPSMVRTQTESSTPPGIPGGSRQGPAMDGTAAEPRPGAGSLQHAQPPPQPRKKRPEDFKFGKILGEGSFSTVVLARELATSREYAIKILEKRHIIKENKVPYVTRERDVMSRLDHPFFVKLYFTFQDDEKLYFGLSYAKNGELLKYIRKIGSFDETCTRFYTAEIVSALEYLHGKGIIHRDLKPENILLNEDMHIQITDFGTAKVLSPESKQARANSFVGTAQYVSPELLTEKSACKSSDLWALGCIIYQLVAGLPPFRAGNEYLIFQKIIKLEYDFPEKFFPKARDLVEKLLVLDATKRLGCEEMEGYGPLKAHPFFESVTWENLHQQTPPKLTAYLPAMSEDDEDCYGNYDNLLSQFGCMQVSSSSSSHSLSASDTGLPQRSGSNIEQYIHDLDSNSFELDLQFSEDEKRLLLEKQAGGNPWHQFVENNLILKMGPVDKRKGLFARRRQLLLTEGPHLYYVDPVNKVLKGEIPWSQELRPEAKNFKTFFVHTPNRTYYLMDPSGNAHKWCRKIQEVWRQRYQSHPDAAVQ

[43] = molecular target: LIM domain kinase 1 (Homo sapiens) (UniProt P53667)
[44] = molecular target: cAMP-dependent protein kinase catalytic subunit beta (Homo sapiens) (UniProt P22694)
[45] = molecular target: Ephrin type-B receptor 6 (Homo sapiens) (UniProt O15197)
[46] = molecular target: Dual specificity protein kinase CLK2 (Homo sapiens) (UniProt P49760)
Chain of Dual specificity protein kinase CLK2 (Homo sapiens) (P49760 whole entry, looked up): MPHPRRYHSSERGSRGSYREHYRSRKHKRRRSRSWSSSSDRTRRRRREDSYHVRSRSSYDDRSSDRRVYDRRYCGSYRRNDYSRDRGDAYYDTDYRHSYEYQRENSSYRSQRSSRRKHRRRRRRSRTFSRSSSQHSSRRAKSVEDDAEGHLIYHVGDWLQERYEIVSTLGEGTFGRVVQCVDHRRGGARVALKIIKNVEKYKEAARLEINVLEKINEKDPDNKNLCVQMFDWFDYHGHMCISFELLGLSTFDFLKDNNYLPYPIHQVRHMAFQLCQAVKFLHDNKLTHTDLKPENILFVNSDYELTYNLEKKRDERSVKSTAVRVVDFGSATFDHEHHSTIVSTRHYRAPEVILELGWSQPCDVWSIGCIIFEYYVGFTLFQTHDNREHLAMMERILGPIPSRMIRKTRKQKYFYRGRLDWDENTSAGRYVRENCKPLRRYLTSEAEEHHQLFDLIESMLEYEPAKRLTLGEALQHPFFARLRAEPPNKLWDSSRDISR

Measured: residual activity

CSc1cccnc1N1CCN(Cc2nc3ccccc3[nH]2)CC1 [A-769]
inactive: [1] 70% | [2] 78% | [3] 100% | [4] 100% | [5] 97% | [6] 100% | [7] 93% | [8] 100% | [9] 100% | [10] 99% | [11] 93% | [12] 95% | [13] 100% | [14] 96% | [15] 73% | [16] 100% | [17] 78% | [18] 95% | [19] 100% | [20] 100% | [21] 100% | [22] 100% | [23] 98% | [24] 100% | [25] 100% | [26] 100% | [27] 96% | [28] 100% | [29] 100% | [30] 78% | [31] 66% | [32] 100% | [33] 97% | [34] 94% | [35] 84% | [36] 100% | [37] 89% | [38] 84% | [39] 100% | [40] 68% | [41] 100% | [42] 99% | [43] 100% | [44] 100% | [45] 89% | [46] 100%

c1ccc(N2CCN(Cc3nc4ccccc4[nH]3)CC2)nc1 [ABT-724]
inactive: [1] 91% | [2] 100% | [3] 100% | [4] 100% | [5] 100% | [6] 95% | [7] 100% | [8] 86% | [9] 93% | [10] 100% | [11] 100% | [12] 100% | [13] 94% | [14] 100% | [15] 100% | [16] 100% | [17] 100% | [18] 100% | [19] 93% | [20] 100% | [21] 100% | [22] 100% | [23] 92% | [24] 100% | [25] 100% | [26] 100% | [27] 100% | [28] 94% | [29] 100% | [30] 100% | [31] 100% | [32] 100% | [33] 84% | [34] 100% | [35] 88% | [36] 100% | [37] 99% | [38] 100% | [39] 100% | [40] 100% | [41] 100% | [42] 89% | [43] 100% | [44] 93% | [45] 75% | [46] 89%
